Results: PubChem BioAssay AID330 (DTP/NCI, 2004)
Where “and” joins values, the source holds several entries; their conditions need not be identical. Equal entries are not always repeated. Toxic doses and inconclusive results are not listed.

Tested on: P388 leukemia ip, CD2F1 mice, survival T/C
Test: NCI In Vivo Anticancer Drug Screen. Data for tumor model P388 Leukemia (intraperitoneal) in CD2F1 (CDF1) mice
Details: endpoint: median survival time, higher = longer survival
In short: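 Mice carrying the transplanted tumor received test compound or vehicle. Survival was recorded in each group, and the value is the treated-group measurement divided by that of the vehicle-treated control group.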

[1] = dose: 60.0 mg/kg/injection, schedule: Q01DX005 (ip), vehicle: saline
[2] = dose: 120.0 mg/kg/injection, schedule: Q01DX005 (ip), vehicle: saline
[3] = dose: 240.0 mg/kg/injection, schedule: Q01DX005 (ip), vehicle: saline
[4] = dose: 50.0 mg/kg/injection, schedule: Q01DX009 (ip), vehicle: Klucel (hydroxypropylcellulose) (HPC)
[5] = dose: 100.0 mg/kg/injection, schedule: Q01DX009 (ip), vehicle: Klucel (hydroxypropylcellulose) (HPC)
[6] = dose: 200.0 mg/kg/injection, schedule: Q01DX009 (ip), vehicle: Klucel (hydroxypropylcellulose) (HPC)
[7] = dose: 50.0 mg/kg/injection, schedule: Q01DX005 (ip), vehicle: Klucel (hydroxypropylcellulose) (HPC)
[8] = dose: 100.0 mg/kg/injection, schedule: Q01DX005 (ip), vehicle: Klucel (hydroxypropylcellulose) (HPC)
[9] = dose: 200.0 mg/kg/injection, schedule: Q01DX005 (ip), vehicle: Klucel (hydroxypropylcellulose) (HPC)
[10] = dose: 25.0 mg/kg/injection, schedule: Q01DX009 (ip), vehicle: saline with Tween-80
[11] = dose: 50.0 mg/kg/injection, schedule: Q01DX009 (ip), vehicle: saline with Tween-80
[12] = dose: 100.0 mg/kg/injection, schedule: Q04DX003 (ip), vehicle: saline with Tween-80
[13] = dose: 200.0 mg/kg/injection, schedule: Q04DX003 (ip), vehicle: saline with Tween-80
[14] = dose: 60.0 mg/kg/injection, schedule: Q01DX005 (ip), vehicle: saline with Tween-80
[15] = dose: 120.0 mg/kg/injection, schedule: Q01DX005 (ip), vehicle: saline with Tween-80
[16] = dose: 240.0 mg/kg/injection, schedule: Q01DX005 (ip), vehicle: saline with Tween-80
[17] = dose: 100.0 mg/kg/injection, schedule: Q01DX009 (ip), vehicle: saline with Tween-80
[18] = dose: 200.0 mg/kg/injection, schedule: Q01DX009 (ip), vehicle: saline with Tween-80
[19] = dose: 50.0 mg/kg/injection, schedule: Q01DX005 (ip), vehicle: saline with Tween-80
[20] = dose: 100.0 mg/kg/injection, schedule: Q01DX005 (ip), vehicle: saline with Tween-80
[21] = dose: 200.0 mg/kg/injection, schedule: Q01DX005 (ip), vehicle: saline with Tween-80
[22] = dose: 50.0 mg/kg/injection, schedule: Q01DX009 (ip), vehicle: saline
[23] = dose: 100.0 mg/kg/injection, schedule: Q01DX009 (ip), vehicle: saline
[24] = dose: 25.0 mg/kg/injection, schedule: Q01DX009 (ip), vehicle: Klucel (hydroxypropylcellulose) (HPC)

COc1ccc2cc1Oc1ccc(cc1)CC1c3cc(OC)c(OC)c(c3CCN1C)Oc1c(O)c(OC)cc3c1C(C2)N(C)CC3 (stereo not given)
T/C (dose: 20.0 mg/kg/injection, schedule: Q01DX009 (ip), vehicle: Klucel (hydroxypropylcellulose) (HPC)): 109 % of control | T/C (dose: 40.0 mg/kg/injection, schedule: Q01DX009 (ip), vehicle: Klucel (hydroxypropylcellulose) (HPC)): 108 % of control | T/C (dose: 80.0 mg/kg/injection, schedule: Q01DX009 (ip), vehicle: Klucel (hydroxypropylcellulose) (HPC)): 101 % of control | T/C (dose: 160.0 mg/kg/injection, schedule: Q01DX009 (ip), vehicle: Klucel (hydroxypropylcellulose) (HPC)): 113 % of control

CN(C)C(=O)C1CCC(=O)N1 (stereo not given)
T/C [1]: 100 % of control | T/C [2]: 109 % of control | T/C [3]: 105 % of control

CCCCCCCC/C=C\CCCCCCCCCCCC(=O)OC/C=C/COC(=O)c1ccccc1
T/C [4]: 100 % of control | T/C [5]: 95 % of control | T/C [6]: 100 % of control

O=C(O)CC(SCP(=O)(O)O)C(=O)O (stereo not given)
T/C (dose: 30.0 mg/kg/injection, schedule: Q01DX005 (ip), vehicle: saline): 98 % of control | T/C [1]: 91 % of control | T/C [2]: 89 % of control | T/C [3]: 93 % of control and 97 % of control

CC12CC(=O)C3C(CCC4CC(OS(=O)(=O)O)CCC43C)C1CC1OC(=O)C=C12 (stereo not given)
T/C [7]: 98 % of control | T/C [8]: 100 % of control | T/C [9]: 94 % of control

O=C(CC(=O)c1ccccc1F)Nc1ccc([N+](=O)[O-])cc1
T/C (dose: 12.5 mg/kg/injection, schedule: Q01DX009 (ip), vehicle: saline with Tween-80): 100 % of control | T/C [10]: 100 % of control | T/C [11]: 95 % of control | T/C [12]: 90 % of control | T/C [13]: 95 % of control | T/C (dose: 400.0 mg/kg/injection, schedule: Q04DX003 (ip), vehicle: saline with Tween-80): 100 % of control

c1cc2c3c(cccc3c1)NN=N2
T/C (dose: 60.0 mg/kg/injection, schedule: Q01DX005 (ip), vehicle: Klucel + Tween-80): 106 % of control | T/C (dose: 120.0 mg/kg/injection, schedule: Q01DX005 (ip), vehicle: Klucel + Tween-80): 99 % of control | T/C (dose: 240.0 mg/kg/injection, schedule: Q01DX005 (ip), vehicle: Klucel + Tween-80): 96 % of control

O=C(O)C(Nc1ncnc2c1ncn2C1OC(CO)C(O)C1O)C(F)(F)C(=O)O (stereo not given)
T/C (dose: 100.0 mg/kg/injection, schedule: Q04DX003 (ip), vehicle: saline): 97 % of control | T/C (dose: 200.0 mg/kg/injection, schedule: Q04DX003 (ip), vehicle: saline): 100 % of control | T/C (dose: 400.0 mg/kg/injection, schedule: Q04DX003 (ip), vehicle: saline): 99 % of control

CC(=O)C(C)(C)Cc1cc(C(C)(C)CC=O)on1
T/C [14]: 107 % of control | T/C [15]: 100 % of control | T/C [16]: 108 % of control

COC(=O)CCC(N)C(=O)NC(Cc1ccccc1)C(=O)NC(C)C(=O)NC1C(O)OC(CO)C(O)C1O (stereo not given)
T/C [1]: 99 % of control | T/C [2]: 98 % of control | T/C [3]: 99 % of control

C[C@@H]1C[C@@]2(C)[C@@H](CC[C@@H]3[C@@H]2CC[C@]2(C)[C@@H](O)CC[C@@H]32)CC1=O
T/C (dose: 100.0 mg/kg/injection, schedule: Q04DX003 (ip), vehicle: Klucel (hydroxypropylcellulose) (HPC)): 100 % of control | T/C (dose: 200.0 mg/kg/injection, schedule: Q04DX003 (ip), vehicle: Klucel (hydroxypropylcellulose) (HPC)): 100 % of control

CC1(c2ccccc2)NC(=O)NC1=O (stereo not given)
T/C (dose: 50.0 mg/kg/injection, schedule: Q01DX001 (ip), vehicle: saline): 100 % of control | T/C (dose: 100.0 mg/kg/injection, schedule: Q01DX001 (ip), vehicle: saline): 110 % of control | T/C (dose: 200.0 mg/kg/injection, schedule: Q01DX001 (ip), vehicle: saline): 115 % of control

CC(=O)Nc1ccc2oc3ccc(Cl)cc3c(=O)c2c1
T/C [7]: 98 % of control | T/C [8]: 92 % of control | T/C [9]: 91 % of control

Cn1c(=O)c2[nH]cnc2n(C)c1=O (tested in a mixture with another compound)
T/C [11]: 104 % of control | T/C [17]: 95 % of control | T/C [18]: 104 % of control

O/N=C1/C(=N/O)N(c2ccccc2)CCN1c1ccccc1
T/C [19]: 99 % of control | T/C [20]: 100 % of control | T/C [21]: 92 % of control

Cc1ccccc1-n1c(=S)n(-c2ccc(Cl)cc2)c2nc3ccccc3nc1/c2=N/Nc1cc(Cl)ccc1Cl
T/C [19]: 95 % of control | T/C [20]: 92 % of control

COC(=O)c1ccccc1N=NNc1ccccc1C#N
T/C (dose: 100.0 mg/kg/injection, schedule: Q01DX001 (ip), vehicle: Klucel (hydroxypropylcellulose) (HPC)): 109 % of control | T/C (dose: 200.0 mg/kg/injection, schedule: Q01DX001 (ip), vehicle: Klucel (hydroxypropylcellulose) (HPC)): 103 % of control | T/C (dose: 400.0 mg/kg/injection, schedule: Q01DX001 (ip), vehicle: Klucel (hydroxypropylcellulose) (HPC)): 94 % of control

Ic1ccc(Nc2ncnc3sc4c(c23)CCCC4)cc1
T/C [19]: 111 % of control | T/C [20]: 94 % of control | T/C [21]: 92 % of control

OCc1ccc(O)c(O)c1
T/C (dose: 50.0 mg/kg/injection, schedule: Q01DX005 (ip), vehicle: saline): 116 % of control | T/C (dose: 100.0 mg/kg/injection, schedule: Q01DX005 (ip), vehicle: saline): 123 % of control | T/C (dose: 200.0 mg/kg/injection, schedule: Q01DX005 (ip), vehicle: saline): 123 % of control | T/C (dose: 400.0 mg/kg/injection, schedule: Q01DX005 (ip), vehicle: saline): 120 % of control

NC(=O)Nc1ccc(Cl)cc1[N+](=O)[O-]
T/C (dose: 37.5 mg/kg/injection, schedule: Q01DX009 (ip), vehicle: Klucel (hydroxypropylcellulose) (HPC)): 99 % of control | T/C (dose: 75.0 mg/kg/injection, schedule: Q01DX009 (ip), vehicle: Klucel (hydroxypropylcellulose) (HPC)): 98 % of control

NC(Cc1ccc(OC(c2ccccc2)(c2ccccc2)c2ccccc2)cc1)C(=O)O (stereo not given)
T/C [22]: 101 % of control | T/C [23]: 96 % of control | T/C (dose: 200.0 mg/kg/injection, schedule: Q01DX009 (ip), vehicle: saline): 90 % of control

O=C(Nc1ccccc1[N+](=O)[O-])C1C(=O)C(=O)N(c2ccccc2[N+](=O)[O-])C1=O (stereo not given)
T/C [4]: 99 % of control | T/C [5]: 108 % of control | T/C [6]: 99 % of control

CC1(C)OCC2OC(n3cnc4c(N)ncnc43)C(O)C2O1 (stereo not given)
T/C [24]: 111 % of control | T/C [4]: 111 % of control | T/C [5]: 111 % of control | T/C [6]: 97 % of control

CC(C)CC(C)C1CCC(C)C1CCC(C)OC=O (stereo not given)
T/C [19]: 102 % of control | T/C [20]: 114 % of control | T/C [21]: 98 % of control

NC(CC(=O)O)C(=O)OCc1cccc(N=Nc2ccccc2)c1 (stereo not given)
T/C (dose: 50.0 mg/kg/injection, schedule: Q04DX003 (ip), vehicle: saline with Tween-80): 99 % of control | T/C [12]: 90 % of control | T/C [13]: 93 % of control

C#CC(O)(c1ccccc1)c1ccc(N2CCOCC2)cc1 (stereo not given)
T/C [10]: 95 % of control | T/C [11]: 98 % of control | T/C [17]: 98 % of control | T/C [18]: 97 % of control

COc1ccc(C2COc3c(ccc(O)c3O)C2)cc1 (stereo not given)
T/C [14]: 104 % of control | T/C [15]: 96 % of control | T/C [16]: 99 % of control

COc1ccc(N2CC=C(c3ccccc3)OP2(=O)N2CC2)cc1 (stereo not given)
T/C [7]: 106 % of control | T/C [8]: 105 % of control | T/C [9]: 95 % of control

COc1cc(C)c(C(=O)Oc2cc(C)c(C(=O)O)c(O)c2)c(O)c1
T/C [22]: 90 % of control | T/C [23]: 95 % of control

CNC(=O)OCc1c(COC(=O)NC)c(-c2ccc(Cl)cc2)n2c1CCC2
T/C (dose: 6.25 mg/kg/injection, schedule: Q01DX009 (ip), vehicle: Klucel (hydroxypropylcellulose) (HPC)): 150 % of control | T/C (dose: 12.5 mg/kg/injection, schedule: Q01DX009 (ip), vehicle: Klucel (hydroxypropylcellulose) (HPC)): 94 % of control | T/C [24]: 88 % of control | T/C [4]: 104 % of control
